Assay results taken from US3969521A, “Pharmaceutical compositions containing tetrahydroalstonine and method for treating circulation disorders” (Science Union et Cie, Societe Francaise de Recherche Medical, priority 1974, dated 1976).
Entries after “also recorded” stand apart in the source; their conditions may differ.

Legend:
[1] = system: recovery of learned memories; experiment: Recovery of learned memories after electroshock (aquatic maze crossing); type: in vivo, rat; settings: for effect on the recovery of learned memory: rat, in vivo
Text: Effects of tetrahydroalstonine on the recovery of learned memories on rats.
Tetrahydroalstonine has been tested on lots of rats in order to determine how fast it allows the recovery of learned memories after supramaximal electroshock in comparision with Vincamine and Papaverine. These last compounds are known to be active on the circulation namely as vasodilating agents.
In this test, as described by C. Giurgea (J. Pharmacol. (Paris) 3 17 (1972)), the rats are submitted to a submaximal electroshock which causes a spatio-temporal desorientation. This syndrom is evidenced by the difficulties the tested animals encountered for crossing over a maze filled with cold water without any error, after they have been submitted to the electroshock. The rats have been previously trained to swimm through this maze and the training has been renewed four times for 2 days.
The electric shock was delivered by means of a Neurovar apparatus (ALVAR Electronics) the third day. 20 Minutes after the electro shock, each lot of rats is tested and the time for crossing over the maze is determined. Immediately after, the rats received the compound to be tested by intra oesophageal tubing. Each lot is then experienced four times, 1, 2, 3, and 4 hours after the electroshock.
The score of performances of each individual is recorded and every error during the crossing over noticed.
The compounds to be tested (papaverine, vincamine and tetrahydroalstonine) are given to the animals, suspended in an aqueous solution of carboxymethylcellulose and sorbitan monooleate.
Papaverine and vincamine were administered at dosis ranging from 1 to 20 mg/kg. Tetrahydroalstonine was administered at a dosis of 0.6 mg/kg, 6 mg/kg and 60 mg/kg.
A lot of rats received only the aqueous solvent under the same volume (0.5 ml/100 g animal) as controls.
Therein are reported for each lot of rats the number of errors and the average time for crossing over the maze during the 5 tests performed after the animals have been subjected to the electroshock.
The treatment has been given 20 mn after the electroshock, immediately
after the first crossing over

[2] = system: central nervous system; experiment: Effects on the central nervous system; type: in vivo
[3] = system: analgetic effect of Morphine; experiment: Analgetic effect of Morphine; settings: in vivo
[4] = 10 mg/kg P.O., 20 minutes (before treatment)
[5] = 10 mg/kg P.O., 20 minutes after electroshock (before treatment)
[6] = 20 mg/kg P.O., 20 minutes (before treatment)
[7] = 20 mg/kg P.O., 20 minutes after electroshock (before treatment)

SMILES | a = variation of average number of errors as regard as the controls [1, 4] | E = average number of errors [1, 5] | T = average time for crossing over [1, 5] | E = average number of errors ([1]; 10 mg/kg P.O., 60 minutes) | T = average time for crossing over ([1]; 10 mg/kg P.O., 60 minutes) | a = variation of average number of errors as regard as the controls ([1]; 10 mg/kg P.O., 60 minutes) | E = average number of errors ([1]; 10 mg/kg P.O., 120 minutes) | T = average time for crossing over ([1]; 10 mg/kg P.O., 120 minutes) | a = variation of average number of errors as regard as the controls ([1]; 10 mg/kg P.O., 120 minutes) | E = average number of errors ([1]; 10 mg/kg P.O., 180 minutes) | T = average time for crossing over ([1]; 10 mg/kg P.O., 180 minutes) | a = variation of average number of errors as regard as the controls ([1]; 10 mg/kg P.O., 180 minutes) | E = average number of errors ([1]; 10 mg/kg P.O., 240 minutes) | T = average time for crossing over ([1]; 10 mg/kg P.O., 240 minutes) | a = variation of average number of errors as regard as the controls ([1]; 10 mg/kg P.O., 240 minutes) | effect on the recovery of learned memory (onset) ([1]; 20 mg/kg) | a = variation of average number of errors as regard as the controls [1, 6] | E = average number of errors [1, 7] | T = average time for crossing over [1, 7] | E = average number of errors ([1]; 20 mg/kg P.O., 60 minutes) | further results
COc1ccc(Cc2nccc3cc(OC)c(OC)cc23)cc1OC [Papaverine] | + | 14,3 | 154,2 seconds | 7,3 | 75,5 seconds | - | 4,8 | 54,2 seconds | - | 4,7 | 49,0 seconds | - | 2,4 | 25,4 seconds | - | delayed | + | 14,0 | 150,7 seconds | 10,4 | time after which improvement in performance appeared statistically significant ([1]; 10 mg/kg): 240 mn; b = statistical value (student's test), number of errors ([1]; 10 mg/kg P.O., 240 minutes): 0,0005; time after which improvement in performance appeared statistically significant ([1]; 20 mg/kg): 180 mn; T = average time for crossing over ([1]; 20 mg/kg P.O., 60 minutes): 89,8 seconds; a = variation of average number of errors as regard as the controls ([1]; 20 mg/kg P.O., 60 minutes): +; E = average number of errors ([1]; 20 mg/kg P.O., 120 minutes): 5,6; T = average time for crossing over ([1]; 20 mg/kg P.O., 120 minutes): 53,4 seconds; a = variation of average number of errors as regard as the controls ([1]; 20 mg/kg P.O., 120 minutes): -; E = average number of errors ([1]; 20 mg/kg P.O., 180 minutes): 2,9; T = average time for crossing over ([1]; 20 mg/kg P.O., 180 minutes): 29,7 seconds; a = variation of average number of errors as regard as the controls ([1]; 20 mg/kg P.O., 180 minutes): -; b = statistical value (student's test), number of errors ([1]; 20 mg/kg P.O., 180 minutes): 0,005; E = average number of errors ([1]; 20 mg/kg P.O., 240 minutes): 3,0; T = average time for crossing over ([1]; 20 mg/kg P.O., 240 minutes): 32,8 seconds; a = variation of average number of errors as regard as the controls ([1]; 20 mg/kg P.O., 240 minutes): -; b = statistical value (student's test), number of errors ([1]; 20 mg/kg P.O., 240 minutes): 0,01; effect on the recovery of learned memory [1]: improving effect
COC(=O)C1=CO[C@@H](C)[C@H]2CN3CCc4c([nH]c5ccccc45)[C@@H]3C[C@H]12 [Raubasine, reference compound] |  |  |  |  |  |  |  |  |  |  |  |  |  |  |  |  |  |  |  |  | effect on the central nervous system ([2]; 50 to 100 mg/kg perorally): merely a sedative; effect on the central nervous system ([2]; dosage not stated): merely endowed with sedative properties; effect on the analgetic effect of Morphine [3]: does not exert such effect; also recorded: does not increase the analgetic effects of morphine
CC[C@]12CCCN3CCc4c(n(c5ccccc45)[C@@](O)(C(=O)OC)C1)[C@@H]32 [Vincamine] | - | 10,8 | 135,6 seconds | 7,2 | 82,7 seconds | - | 4,6 | 44,1 seconds | - | 5,6 | 52,8 seconds | + | 4,3 | 38,6 seconds | - | delayed | + | 14,3 | 124,5 seconds | 7,1 | number of mistakes ([1]; 10 mg/kg): did not show any decrease in the number of mistakes; performances ([1]; 10 mg/kg, after 2 hours): slight improvement; start of the improving effect after the administration ([1]; 20 mg/kg): 40 min; start of the improving effect after the electroshock ([1]; 20 mg/kg): 60 mn; T = average time for crossing over ([1]; 20 mg/kg P.O., 60 minutes): 58,4 seconds; a = variation of average number of errors as regard as the controls ([1]; 20 mg/kg P.O., 60 minutes): -; E = average number of errors ([1]; 20 mg/kg P.O., 120 minutes): 5,2; T = average time for crossing over ([1]; 20 mg/kg P.O., 120 minutes): 38,2 seconds; a = variation of average number of errors as regard as the controls ([1]; 20 mg/kg P.O., 120 minutes): -; E = average number of errors ([1]; 20 mg/kg P.O., 180 minutes): 2,5; T = average time for crossing over ([1]; 20 mg/kg P.O., 180 minutes): 22,1 seconds; a = variation of average number of errors as regard as the controls ([1]; 20 mg/kg P.O., 180 minutes): -; b = statistical value (student's test), number of errors ([1]; 20 mg/kg P.O., 180 minutes): 0,0005; E = average number of errors ([1]; 20 mg/kg P.O., 240 minutes): 3,2; T = average time for crossing over ([1]; 20 mg/kg P.O., 240 minutes): 24,2 seconds; a = variation of average number of errors as regard as the controls ([1]; 20 mg/kg P.O., 240 minutes): -; b = statistical value (student's test), number of errors ([1]; 20 mg/kg P.O., 240 minutes): 0,025; number of mistakes ([1]; 20 mg/kg, 3 and 4 hours after the electroshock): significantly decreased; effect on the recovery of learned memory [1]: improving effect
